Test results published in patent US8461389B2, “Psycho-pharmaceuticals” (University College Dublin, National University of Ireland, …, priority 2008, dated 2013).

What was measured:
[1] = tested on: rat pyloric muscle; assay: Electrical field stimulation (EFS)-mediated relaxation of isolated pyloric muscle; details: 25 μM Captodiamine; 10 min treatment, 10 μM-100 μM tested
Experimental: Inhibition of pyloric relaxation by administration of captodiamine was performed as described in Kashyap P., Micci M., Pasricha S., Pasricha P., The D2/D3 Agonist PD 128907 (R-(+)-trans-3,4a,10b-Tetrahydro-4-Propyl-2H,5H-[1]Benzopyrano[4,3-b]-1,4-Oxazin-9-ol) Inhibits Stimulated Pyloric Relaxation and Spontaneous Gastric Emptying, 2007, Digestive Diseases and Sciences.
Male Wistar rats were killed by cervical dislocation and decapitation. The stomach was removed and placed in oxygenated Krebs buffer (118 mM NaCl, 4.7 mM KCl, 1.2 mM KH2PO4, 1.2 mM MgSO4, 4.2 mM NaHCO3, 2 mM CaCl2, 10 mM glucose, 200 μM sulphinpyrazone and 10 mM Hepes, pH 7.4). […] The tissue was cut longitudinally along the mesenteric border and trimmed to 2 mm in width. At one end, the tissue was mounted onto an L-shaped electrode and placed into a 25 ml chamber containing Krebs buffer, maintained at 37° C. and continuously bubbled with 95% O2/5% CO2. The other end of the tissue was attached to an isometric force transducer using string sutured to tissue. Tension was monitored, recorded and analyzed by a digital recording device (PowerLab and Chart 5, ADInstruments). […] Spontaneous contraction of the pyloric strips were observed and recorded following the equilibration phase. […] The weight of the tissue was measured at the end of each session. […]

[2] = tested on: BDNF (Brain-derived neurotrophic factor); assay: BDNF levels in brain regions by ELISA after sub-chronic administration; type: in vivo, mice; details: sub-chronic 7 day treatment, FIG. 9D
Experimental: (§1) Neurotrophic factor concentration was determined by using an ELISA purchased from Promega Inc;
The Experimental protocol employed in the behavioural evaluation of Captodiamine is set out as follows: Three separate cohorts of C57B16 mice were employed in the behavioural evaluation of Captodiamine (see FIG. 7). Cohort 1 was used to evaluate the drug effect on prepulse inhibition, spatial learning, open-field and novel object recognition. Cohort 2 was used to evaluate drug effects on the forced swim test and the elevated X-maze. The behavioural tests were administered in sequence as per day number indicated in the bar of FIG. 7. The drug was administered by the intraperitoneal route and on the day of training the drug was administered after the behavioural analysis. Cohort 3 was used for analysis of growth factor (GF) expression (such as, for example, Brain Derived Neurotrophic Factor (BDNF and Glial Derived Neurotrophic Factor (GDNF). The brains were removed immediately after sacrifice, the relevant brain areas dissected, homogenised and stored at −80° C. until analysis. Captodiamine/UCD-0620 was administered at doses of 3 and 5 mg/kg. The compound was administered once daily, via the intraperitoneal route, for 7 days prior to testing and the animals were drug-free at time of training.
The Structure (FIG. 9A), receptor affinity (FIG. 9B), pharmacokinetics (FIG. 9C) and growth factor modulation (FIG. 9D) of Captodiamine are provided. Analysis of receptor affinities was performed by Novascreen™ and those displacing >20% of the natural ligand are indicated by the filled boxes. Blood levels of Captodiamine were determined by GC mass spectroscopy. In separate samples taken from a cannulated jugular at increasing time intervals following a single intraperitoneal injection of tha drug (5 mg/kg). Growth factor analysis was performed using tissue homogenates and ELISA assays specific for each growth factor (Promega). Values were analysed using a Student t-test and those with a p value<0.05 were accepted as significant and are indicated with an asterisk.

[3] = tested on: patients with depressive states; details: Azoulay, Le Bezu and Leyritz 1956; cited from earlier work
[4] = tested on: GDNF (Glial cell derived neurotrophic factor); assay: GDNF levels in brain regions by ELISA after sub-chronic administration; type: in vivo, mice; details: sub-chronic 7 day treatment, FIG. 9D
Experimental: as §1
The Experimental protocol employed in the behavioural evaluation of Captodiamine is set out as follows: Three separate cohorts of C57B16 mice were employed in the behavioural evaluation of Captodiamine (see FIG. 7). Cohort 1 was used to evaluate the drug effect on prepulse inhibition, spatial learning, open-field and novel object recognition. Cohort 2 was used to evaluate drug effects on the forced swim test and the elevated X-maze. The behavioural tests were administered in sequence as per day number indicated in the bar of FIG. 7. The drug was administered by the intraperitoneal route and on the day of training the drug was administered after the behavioural analysis. […]
The Structure (FIG. 9A), receptor affinity (FIG. 9B), pharmacokinetics (FIG. 9C) and growth factor modulation (FIG. 9D) of Captodiamine are provided. […] Blood levels of Captodiamine were determined by GC mass spectroscopy. […] Values were analysed using a Student t-test and those with a p value<0.05 were accepted as significant and are indicated with an asterisk.

[5] = tested on: C57B16 mice; assay: Elevated X-maze; type: in vivo; details: 3 and 5 mg/kg i.p. once daily for 7 days; FIG. 4
Text: The elevated X-Maze, otherwise known as the Elevated Plus Maze is a test that relies on the inherent conflict between exploration of a novel area and avoidance of its aversive features. The test may be used in male or female rats or mice or male gerbils. It is reliable in a wide range of strains and in group-housed or isolated animals. The maze consists of four arms in the form of an x or plus: two open arms and two arms of the same size, also with an open roof but enclosed by walls. The two open arms are opposite each other and converge into a central platform. The animal under investigating is observed by a video camera and its movements scored by the tracking software Ethovision by Noldus. During the experiment the animal is placed in the central platform of the maze facing an open arm and is observed for 5 minutes with the following being measured: number of entries into open arms, number of entries into closed arms, time spent in open arms, time spent in closed arms and finally the time spent in the central square (File et al., Current Protocols in Neuroscience (2004) 8.3.1-8.3.22).
The elevated X-maze has strong claims to validity as an animal model of anxiety and is of great utility in evaluating putative anxiety modulating drugs. The test is based on rodents' natural fear of heights and open spaces. […]

CCCCSc1ccc(C(SCCN(C)C)c2ccccc2)cc1 (centres unmarked) [Captodiamine, 2-[(4-butylsulfanylphenyl)-phenyl-methyl]sulfanyl-N,N-dimethyl-ethanamin]
effect on EFS-mediated relaxation of the rat pyloric muscle [1]: attenuation of the EFS-mediatated relaxation | BDNF expression levels, hippocampus [2]: no effect | BDNF expression levels, hypothalamus [2]: significantly increased | BDNF expression levels, prefrontal cortex [2]: no effect | clinical usefulness in depressive states resistant to largactil [3]: useful in only one patient | GDNF expression levels, hypothalamus [4]: but not in either the hippocampus or the hypothalamus | GDNF expression levels, prefrontal cortex [4]: significantly decreased | time exploring the open arms of the elevated X-maze [5]: significantly longer periods exploring the open arms
